Assays:
[1] = Intrinsic 1'-OH-MDZ formation clearance, human duodenal mucosa/microsomes; type: in vitro ADME; conditions: duodenal microsomes; eight human duodenal preparations, Vmax/Km; read-out: Microsomal intrinsic clearance (1'-OH-MDZ formation), duodenum
Description: (§1) For comparison, an intrinsic 1'-OH-MDZ formation clearance was determined for eight paired human duodenal and jejunal mucosae. The mucosal mass was removed from ~1 foot sections of duodenum and jejunum and total homogenate and microsomes were prepared, as described above. […] Microsomes were incubated with varying concentrations of MDZ for determination of Km and Vmax parameters for 1'-hydroxylation.
(§2) The total amount of microsomal protein per gram of mucosa was determined from the following relationship: [formula] This calculation assumes that CYP3A4 found in mucosal homogenate resides exclusively within the microsomal fraction. The microsomal intrinsic formation clearance was calculated as the ratio of Vmax to Km. The intrinsic 1'-OH-MDZ formation clearance per gram of mucosa was calculated as the product of the microsomal intrinsic formation clearance and the computed amount of microsomal protein per gram of mucosa.

[2] = tested on: human duodenal microsomes (CYP3A); assay: as above; type: in vitro ADME; conditions: eight human duodenal preparations, Vmax/Km; listed as MDZ
Description: as §1, §2

[3] = tested on: CYP3A; conditions: K. E. Thummel et al.; cited from earlier work
[4] = tested on: human jejunal microsomes (CYP3A); assay: Intrinsic 1'-OH-MDZ formation clearance, human jejunal mucosa/microsomes; type: in vitro ADME; conditions: eight human jejunal preparations, Vmax/Km; listed as MDZ
Description: as §1, §2

[5] = as above; type: in vitro ADME; conditions: jejunal microsomes; eight human jejunal preparations, Vmax/Km; read-out: Microsomal intrinsic clearance (1'-OH-MDZ formation), jejunum
Description: as §1, §2

[6] = M. F. Paine et al.; cited from earlier work
[7] = tested on: Caco-2 cells; assay: Apical/basolateral distribution of midazolam and metabolite across Caco-2 monolayers
Excerpt: At the end of this period, the medium was replaced with medium not containing vitamin D (except that contributed by the 5% FBS).

[8] = molecular target: CYP3A (Caco-2 cells) (Homo sapiens, UniProt P08684)
Chain of CYP3A (Caco-2 cells) (P08684 2-503): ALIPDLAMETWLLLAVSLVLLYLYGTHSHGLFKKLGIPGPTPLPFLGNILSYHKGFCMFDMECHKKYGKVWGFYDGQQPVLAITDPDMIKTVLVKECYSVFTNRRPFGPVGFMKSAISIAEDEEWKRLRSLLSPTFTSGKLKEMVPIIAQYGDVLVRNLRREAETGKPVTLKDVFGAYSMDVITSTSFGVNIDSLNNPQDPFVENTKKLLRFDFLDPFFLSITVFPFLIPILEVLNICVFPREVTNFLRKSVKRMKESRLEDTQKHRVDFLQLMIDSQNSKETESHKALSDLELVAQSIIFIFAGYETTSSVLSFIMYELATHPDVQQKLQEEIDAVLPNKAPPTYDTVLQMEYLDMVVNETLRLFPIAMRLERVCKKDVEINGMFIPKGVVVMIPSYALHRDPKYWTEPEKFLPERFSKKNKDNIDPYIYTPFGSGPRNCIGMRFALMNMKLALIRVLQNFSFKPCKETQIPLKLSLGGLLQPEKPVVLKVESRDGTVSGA
Description: Standards were also prepared in duplicate. Known amounts of MDZ and 1'-OH-MDZ (1-50 ng) were combined with 100 mM potassium phosphate buffer, pH 7.4.
Unknowns and standards were extracted with 5 mL ethyl acetate and the upper organic layer transferred to clean tubes. The solvent was evaporated to dryness under a stream of nitrogen. The remaining solvent was reconstituted in 100 μL derivatizing reagent (10% N-methyl-N-(t-butyldimethylsilyl)trifluoroacetamide in acetonitrile).
At the end of this period, the medium was replaced with medium not containing vitamin D (except that contributed by the 5% FBS). Next, 4 μM MDZ was added to the apical (luminal) or basolateral (serosal) medium of the cells.
Parent drug and metabolite concentrations measured at 1 and 2 hours after MDZ administration were used for computation. The amount of 1'-OH-MDZ formed during this interval was determined as the sum of metabolite in the apical and basolateral compartments at 2 hours minus the total amount measured at 1 hour.
Because the incubation medium contained significant amounts of FBS, the fraction of MDZ bound to culture medium proteins was measured by equilibrium dialysis. […] The unbound concentration of MDZ in the apical and basolateral compartments during cell culture was calculated as the product of the experimentally determined MDZ-free fraction and total MDZ concentration. Since MDZ concentrations in the apical and basolateral compartments were not at equilibrium during the 1-2 hour MDZ incubation interval, the intracellular reaction was assumed to be driven by a MDZ concentration that was more closely aligned with the concentration in the basolateral compartment.
At the end of this period, the medium was replaced with medium containing neither serum nor vitamin D. Next, MDZ (4 μM) was added to the apical compartment.

[9] = 1α,25-(OH)2 -D3 pretreated cells

Cc1ncc2n1-c1ccc(Cl)cc1C(c1ccccc1F)=NC2 [midazolam]
microsomal CLint [1]: 134 ± 109 µL/min/mg
Microsomal intrinsic clearance (1'-OH-MDZ formation), duodenum [2]: 133.8 μl/min/mg protein
Km [3]: ~3.4 µM
Microsomal intrinsic clearance (1'-OH-MDZ formation), jejunum [4]: 118.3 μl/min/mg protein
microsomal CLint [5]: 118 ± 98.2 µL/min/mg
site of midazolam glucuronidation in vivo [6]: occurs primarily in the liver and not in the intestine in vivo
apical-to-basolateral concentration gradient of parent compound ([7]; apical administration of 4 μM MDZ, 12-24 h): approximately 1.4 fold
distribution of parent compound after basolateral administration ([7]; by 12 hours): distributed preferentially to the apical medium
predicted unbound intracellular MDZ concentration in Caco-2 cells [8]: ~ 0.07 μM
rate of 1'-OH-MDZ formation over time ([8]; 0-24 h, FIG. 6A): remained roughly constant after 6 hours
time until 1'-OH-MDZ detectable after MDZ administration ([8]; 4 μM MDZ to either compartment, cells treated with 0.25 μM 1α,25-(OH)2 -D3): ≤ 1 h
1'-Hydroxymidazolam formation rate ([8]; 1-2 h incubation interval, 4 μM MDZ apical): 75.9 pmol/min/g cells
unbound midazolam concentration, apical ([8]; 1-2 h interval): 280 nM
unbound midazolam concentration, basolateral ([8]; 1-2 h interval): 66.3 nM
intrinsic 1'-OH-MDZ formation clearance, Caco-2 cells ([8]; 1-2 h interval, non-saturating): 1.14 ml/min/g cells
average midazolam concentration, apical ([8]; 1-2 h interval, total): 2740 nM
average midazolam concentration, basolateral ([8]; 1-2 h interval, total): 650 nM
intrinsic 1'-OH-MDZ formation clearance of Caco-2 cells as percent of duodenal mucosa [8, 9]: 30%
intrinsic 1'-OH-MDZ formation clearance of Caco-2 cells as percent of jejunal mucosa [8, 9]: 31%

Source: US5856189A, “Cell culture model for drug bioavailability” (priority 1997, dated 1999)
